pIC50: −log10 of the molar value. The source made the active and inactive calls. The calls are words filed in the database; no cut-off is given here.
Columns and labels:
Adenosine receptor A1 = target: T1, Adenosine receptor A1 (Rattus norvegicus, UniProt P25099); test: Displacement of […] from adenosine A1 receptor in rat brain; type: tissue-based
T1 sequence (P25099 whole entry): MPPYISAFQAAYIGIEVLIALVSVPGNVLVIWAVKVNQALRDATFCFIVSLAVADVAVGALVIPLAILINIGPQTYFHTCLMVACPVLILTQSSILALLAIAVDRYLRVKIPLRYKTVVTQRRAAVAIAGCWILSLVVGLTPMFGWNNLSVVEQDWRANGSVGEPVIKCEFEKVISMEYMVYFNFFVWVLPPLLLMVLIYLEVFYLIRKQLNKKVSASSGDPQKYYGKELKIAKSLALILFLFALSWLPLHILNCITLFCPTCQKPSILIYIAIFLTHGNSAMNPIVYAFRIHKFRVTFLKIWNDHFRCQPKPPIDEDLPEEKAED

[1] = target: T2, Adenosine receptor A1 (Rattus norvegicus) (UniProt P25099); test: Displacement of […] from adenosine A1 receptor in rat brain up to 2.2 mM; type: tissue-based
T2 sequence (whole entry): T1 sequence (P25099 whole entry)

Compound | pIC50 (Adenosine receptor A1) | Activity [1]
O=C(NCCSSCCNC(=O)/C(Cc1ccc(O)c(Br)c1)=N/O)/C(Cc1ccc(O)c(Br)c1)=N/O [PSAMMAPLIN A] | 4.70 | –
O=C(NCCSSCCNC(=O)/C(Cc1cc(Br)c(O)c(-c2cc(C/C(=N\O)C(=O)NCCSSCCNC(=O)/C(Cc3ccc(OS(=O)(=O)O)c(Br)c3)=N/O)cc(Br)c2O)c1)=N/O)/C(Cc1ccc(O)c(Br)c1)=N/O | – | inactive
O=C(NCCSSCCNC(=O)/C(Cc1ccc(OS(=O)(=O)O)c(Br)c1)=N/O)/C(Cc1ccc(O)c(Br)c1)=N/O | 4.05 | –
